Target: T1, ACC1 (Homo sapiens, UniProt Q13085)
T1 construct: purchased BPS bioscience
Assay: In vitro inhibition of ACC1 activity, ADP-Glo Kinase Analysis
Format: biochemical
Conditions: 1 nM ACC1, 10 μM acetyl-CoA, 20 μM ATP
Excerpt: ADP-Glo™ Kinase Analysis Kit (Promega) is used for the in vitro analysis of the inhibitory effect of the present compound on ACC1 or ACC2. ADP-Glo™ Kinase Analysis is a kinase detection analysis of luminescence method. ADP is produced in the process of catalyzing the substrate by ACC. ADP is converted into ATP which is then converted into light by Ultra-Glo™ luciferase. ADP is quantified by detecting the light signal, thus the enzyme activity can be measured by quantification of the ADP amount produced during the enzyme reaction. The analysis is carried out in two steps: in the first step, after the kinase reaction, a portion of ADP-Glo™ reagent equal in volume to the kinase reaction system is added to terminate the reaction and consume the remaining ATP; in the second step, a kinase detection reagent is added, which not only converts ADP into ATP, but also uses a coupled luciferase/luciferin reaction to detect newly synthesized ATP.
a. 10 mM compound stock solution (the present compound was dissolved in 100% DMSO to prepare the 10 mM stock solution) was diluted 50-fold to 200 μM with 100% DMSO, and then diluted in equal proportions (1:3) in a 96-well dilution plate (249944, Nunc). The gradient concentrations of the compound were 200 μM, 66.67 μM, 22.22 μM, 7.41 μM, 2.47 μM, 0.823 μM, 0.274 μM, 0.0914 μM, 0.0305 μM, 0.0102 μM, 0.00339 μM and 0.00113 μM.
b. 4.5 μL ACC1 working solution (BPS bioscience) (2.22 nM) was added to each well of a 384-well test plate (6007290, Perkin Elmer).
c. 0.5 μL of the serially diluted compound (prepared in step a) was added to each well of the 384-well test plate, which was centrifuged at 1000 rpm for 1 min and then incubated at room temperature for 15 min. The reaction system with compound GS-0976 at a final concentration of 0.1 μM was used as positive control; the reaction system with no compound but DMSO at a final concentration of 5% was used as negative control.
d. In the 384-well test plate (prepared in step c), 5 μL of the substrate working solution was added to each well to start the enzymatic reaction. The plate was centrifuged at 1000 rpm for 1 min and then incubated at room temperature for 30 min. The final concentration of each component in the ACC1 reaction system: 1 nM ACC1, 10 μM acetyl-CoA, 30 mM NaHCO3, and 20 μM ATP. The final concentration of each component in the ACC2 reaction system: 1.1 nM ACC2, 20 μM acetyl-CoA, 20 mM NaHCO3, and 15 μM ATP. Final concentrations of test compounds: 10 μM, 3.33 μM, 1.11 μM, 0.37 μM, 0.123 μM, 0.0411 μM, 0.0137 μM, 0.00457 μM, 0.00152 μM, 0.00051 μM, 0.00017 μM and 0.000056 μM. The final concentration of DMSO was 5% (v/v).
e. 10 μL of ADP-Glo reagent was added to each well of the 384-well test plate (prepared in step d), which was centrifuged at 1000 rpm for 1 min and then incubated at room temperature for 40 min.
f. 20 μL of kinase detection reagent was added to each well of the 384-well test plate (prepared in step e), which was centrifuged at 1000 rpm for 1 min and then incubated at room temperature for 40 min.
g. The chemiluminescence signal was detected with Perkin Elmer EnVision 2104.
ACC1 working solution and substrate working solution were both prepared with 1× kinase reaction buffer. The buffer was consisting of 50 mM HEPES buffer, 2 mM magnesium chloride, 0.01% BRIJ-35, 2 mM potassium citrate, 50 μg/mL BSA and 2 mM DTT.
The average value of the positive and negative control well and the standard deviation were calculated. The inhibition percentage was calculated according to the following formula: 100×[1−(compound−average value of positive control)/(average value of negative control-average value of positive control)].
IC50 of the compound was obtained using GraphPad Prism 6 software according to the following nonlinear fitting formula:
Y=Bottom+(Top−Bottom)/(1+10^((Log IC50−X)×Hillslope)), […]

| SMILES | IC50 [nM] |
| --- | --- |
| COc1ccccc1[C@H](CN1c2sc(-c3ncco3)c(C)c2C(=O)[C@]2(C[C@H](C(=O)NC(C)(C)C(=O)O)C2)C1=O)OC1CCOCC1 [Compound 11, 2-((1s,3S)-7′-((R)-2-(2-methoxyphenyl)-2-((tetrahydro-2H-pyran-4-yl)oxy)ethyl)-3′-methyl-2′-(oxazol-2-yl)-4′,6′-dioxo-6′,7′-dihydro-4′H-spiro[cyclobutane-1,5′-thieno[2,3-b]pyridine]-3-carboxyamido)-2-methylpropionic Acid] | < 10 |
| COc1ccccc1[C@H](CN1c2sc(-c3ncco3)c(C)c2C(=O)[C@]2(C[C@H](C(=O)N(C)C)C2)C1=O)OC1CCOCC1 [Compound 12] | < 10 |
| COc1ccccc1[C@H](CN1c2sc(-c3ncco3)c(C)c2C(=O)[C@]2(C[C@H](C(=O)N[C@@H](C)C(=O)O)C2)C1=O)OC1CCOCC1 [Compound 13] | < 10 |
| COc1ccccc1[C@H](CN1c2sc(-c3ncco3)c(C)c2C(=O)[C@]2(C[C@H](C(=O)N[C@H](C)C(=O)O)C2)C1=O)OC1CCOCC1 [Compound 14, ((1S,3S)-7′-((R)-2-(2-methoxyphenyl)-2-((tetrahydro-2H-pyran-4-yl)oxy)ethyl)-3′-methyl-2′-(oxazol-2-yl)-4′,6′-dioxo-6′,7′-dihydro-4′H-spiro[cyclobutane-1,5′-thieno[2,3-b]pyridine]-3-carbonyl)-D-alanine] | < 10 |
| COC(=O)[C@@H](C)NC(=O)[C@H]1C[C@@]2(C1)C(=O)c1c(sc(-c3ncco3)c1C)N(C[C@H](OC1CCOCC1)c1ccccc1OC)C2=O [Compound 14-1, Methyl ((1S,3S)-7′-((R)-2-(2-methoxyphenyl)-2-((tetrahydro-2H-pyran-4-yl)oxy)ethyl)-3′-methyl-2′-(oxazol-2-yl)-4′,6′-dioxo-6′,7′-dihydro-4′H-spiro[cyclobutane-1,5′-thieno[2,3-b]pyridine]-3-carbonyl)-D-alaninate] | < 10 |
| COc1ccccc1[C@H](CN1c2sc(-c3ncco3)c(C)c2C(=O)[C@]2(C[C@H](C(=O)N(C)CC(=O)O)C2)C1=O)OC1CCOCC1 [Compound 15, N-((1s,3S)-7′-((R)-2-(2-methoxyphenyl)-2-((tetrahydro-2H-pyran-4-yl)oxy)ethyl)-3′-methyl-2′-(oxazol-2-yl)-4′,6′-dioxo-6′,7′-dihydro-4′H-spiro[cyclobutane-1,5′-thieno[2,3-b]pyridine]-3-carbonyl)-N-methylglycine] | < 10 |
| COC(=O)CN(C)C(=O)[C@H]1C[C@@]2(C1)C(=O)c1c(sc(-c3ncco3)c1C)N(C[C@H](OC1CCOCC1)c1ccccc1OC)C2=O [Compound 15-1, Methyl N-((1s,3S)-7′-((R)-2-(2-methoxyphenyl)-2-((tetrahydro-2H-pyran-4-yl)oxy)ethyl)-3′-methyl-2′-(oxazol-2-yl)-4′,6′-dioxo-6′,7′-dihydro-4′H-spiro[cyclobutane-1,5′-thieno[2,3-b]pyridine]-3-carbonyl)-N-methylglycinate] | < 10 |
| COc1ccccc1[C@H](CN1c2sc(-c3ncco3)c(C)c2C(=O)[C@]2(C[C@H](C(=O)OCC(=O)O)C2)C1=O)OC1CCOCC1 [Compound 16, 2-(((1s,3S)-7′-((R)-2-(2-methoxyphenyl)-2-((tetrahydro-2H-pyran-4-yl)oxy)ethyl)-3′-methyl-2′-(oxazol-2-yl)-4′,6′-dioxo-6′,7′-dihydro-4′H-spiro[cyclobutane-1,5′-thieno[2,3-b]pyridine]-3-carbonyl)oxy)acetic Acid] | < 10 |
| COc1ccccc1[C@H](CN1c2sc(-c3ncco3)c(C)c2C(=O)[C@]2(C[C@H](C(N)=O)C2)C1=O)OC1CCOCC1 [Compound 17] | < 10 |
| COc1ccccc1[C@H](CN1c2sc(-c3ncco3)c(C)c2C(=O)[C@]2(C[C@H](C(=O)NCCO)C2)C1=O)OC1CCOCC1 [Compound 18, (1s,3S)-N-(2-hydroxyethyl)-7′-((R)-2-(2-methoxyphenyl)-2-((tetrahydro-2H-pyran-4-yl)oxy)ethyl)-3′-methyl-2′-(oxazol-2-yl)-4′,6′-dioxo-6′,7′-dihydro-4′H-spiro[cyclobutane-1,5′-thieno[2,3-b]pyridine]-3-carboxamide] | < 10 |
| COc1ccccc1[C@H](CN1C(=O)C2(CCN(C(=O)OC(C)(C)C)CC2)C(=O)c2c1sc(-c1ncco1)c2C)OC1CCOCC1 [Compound 20, tert-butyl (R)-7′-(2-(2-methoxyphenyl)-2-((tetrahydro-2H-pyran-4-yl)oxy)ethyl)-3′-methyl-2′-(oxazol-2-yl)-4′,6′-dione-6′,7′-dihydro-4′H-spiro[piperidine-4,5′-thieno[2,3-d]pyridine]-1-carboxylate] | 10 to 100 |
| COc1ccccc1[C@H](CN1C(=O)C2(CCNCC2)C(=O)c2c1sc(-c1ncco1)c2C)OC1CCOCC1 [Compound 21, (R)-7′-(2-(2-methoxyphenyl)-2-((tetrahydro-2H-pyran-4-yl)oxy)ethyl)-3′-methyl-2′-(oxazol-2-yl)-4′H-spiro[piperidine-4,5′-thieno[2,3-d]pyridine]-4′,6′(7′H)-dione] | < 10 |
| COC(=O)CN1CCC2(CC1)C(=O)c1c(sc(-c3ncco3)c1C)N(C[C@H](OC1CCOCC1)c1ccccc1OC)C2=O [Compound 22, methyl (R)-2-(7′-(2-(2-methoxyphenyl)-2-((tetrahydro-2H-pyran-4-yl)oxy)ethyl)-3′-methyl-2′-(oxazol-2-yl)-4′,6′-dioxo-6′,7′-dihydro-4′H-spiro[piperidine-4,5′-thieno[2,3-d]pyridine]-1-yl)carboxylate] | 10 to 100 |
| COc1ccccc1[C@H](CN1C(=O)C2(CCN(CC(=O)O)CC2)C(=O)c2c1sc(-c1ncco1)c2C)OC1CCOCC1 [Compound 23, (R)-2-(7′-(2-(2-methoxyphenyl)-2-((tetrahydro-2H-pyran-4-yl)oxy)ethyl)-3′-methyl-2′-(oxazol-2-yl)-4′,6′-dioxo-6′,7′-dihydro-4′H-spiro[piperidine-4,5′-thieno[2,3-d]pyridin]-1-yl)acetic Acid] | < 10 |
| COc1ccccc1[C@H](CN1C(=O)C2(CCN(C(C)(C)C(=O)O)CC2)C(=O)c2c1sc(-c1ncco1)c2C)OC1CCOCC1 [Compound 25, (R)-2-(7′-(2-(2-methoxyphenyl)-2-((tetrahydro-2H-pyran-4-yl)oxy)ethyl)-3′-methyl-2′-(oxazol-2-yl)-4′,6′-dioxo-6′,7′-dihydro-4′H-spiro[piperidine-4,5′-thieno[2,3-d]pyridin]-1-yl)-2-methylpropionic Acid] | 10 to 100 |
| COC(=O)C(C)(C)N1CCC2(CC1)C(=O)c1c(sc(-c3ncco3)c1C)N(C[C@H](OC1CCOCC1)c1ccccc1OC)C2=O [Compound 25-1, methyl (R)-2-(7′-(2-(2-methoxyphenyl)-2-((tetrahydro-2H-pyran-4-yl)oxy)ethyl)-3′-methyl-2′-(oxazol-2-yl)-4′,6′-dioxo-6′,7′-dihydro-4′H-spiro[piperidine-4,5′-thieno[2,3-d]pyridin]-1-yl)-2-methylpropanoate] | 10 to 100 |
| COC(=O)C(=O)N1CCC2(CC1)C(=O)c1c(sc(-c3ncco3)c1C)N(C[C@H](OC1CCOCC1)c1ccccc1OC)C2=O [Compound 26, methyl (R)-2-(7′-(2-(2-methoxyphenyl)-2-((tetrahydro-2H-pyran-4-yl)oxy)ethyl)-3′-methyl-2′-(oxazol-2-yl)-4′,6′-dioxo-6′,7′-dihydro-4′H-spiro[piperidine-4,5′-thieno[2,3-d]pyridin]-1-yl)-2-oxoacetate] | < 10 |

Source: patent US20220041616A1, “SPIRO COMPOUND AND MEDICAL USES THEREOF” (The National Institutes of Pharmaceutical R&D Co., Ltd., priority 2018, published 2022)
